Numbered stars: 1 amine (or outer) side, 2 acyl side, 3 side chain; on linkers, the order of the positions; unused ones are H or OH. Bridge positions count the residues as written; N and C are the ends. Square brackets hold non-standard residues; d marks the D form. Peptide text beside a SMILES is read from it. * marks the point of attachment. ξ: configuration not given here. ξPro(4-NHCO(5-Cl-2-thienyl)) = O=C(NC1CNC(C(=O)O)C1)c1ccc(Cl)s1; ξPro(4ξ-NHCOC6H4-4-Cl) = O=C(NC1CNC(C(=O)O)C1)c1ccc(Cl)cc1; Tetrahydropyran4carbonyl = O=C(C1CCOCC1)*; 2Thenoyl(5-Cl) = O=C(c1ccc(Cl)s1)*; Benzoyl(4-Cl) = O=C(c1ccc(Cl)cc1)*; Phenoxyacetyl = O=C(COc1ccccc1)*; Cysteamide = C(CS[*:3])N[*:1]; X3 = O=C(Cc1c[nH]c2ccccc12)*; X8 = O=C(c1ccc(=O)[nH]n1)*; MeOSuc = COC(=O)CCC(=O)*; Dap = NC[C@H](N)C(=O)O; Mpa = O=C(O)CCS
Biological target: MDM2 (Homo sapiens, UniProt Q00987)
Sequence (Q00987 whole entry): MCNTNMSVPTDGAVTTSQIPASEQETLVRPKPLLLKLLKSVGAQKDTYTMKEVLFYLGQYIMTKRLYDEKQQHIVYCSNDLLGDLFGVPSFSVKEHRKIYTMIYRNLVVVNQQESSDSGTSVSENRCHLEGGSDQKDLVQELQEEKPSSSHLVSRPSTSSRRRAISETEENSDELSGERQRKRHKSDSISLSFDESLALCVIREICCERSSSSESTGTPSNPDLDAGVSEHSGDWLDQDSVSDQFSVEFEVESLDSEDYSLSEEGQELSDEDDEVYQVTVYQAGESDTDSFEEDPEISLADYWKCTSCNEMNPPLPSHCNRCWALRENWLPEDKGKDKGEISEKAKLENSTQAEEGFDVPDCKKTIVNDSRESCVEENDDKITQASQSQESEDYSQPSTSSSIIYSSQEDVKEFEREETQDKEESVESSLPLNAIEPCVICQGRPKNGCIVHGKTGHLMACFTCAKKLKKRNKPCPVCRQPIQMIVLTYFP
Test: MDM2 binding screen: displacement of fluorescent p53 peptide probe FP53 (fluorescence polarization)
Conditions: for fraction fluorescent probe displaced, Screen: initial screen; for fraction fluorescent probe displaced, Screen / fraction fluorescent probe displaced, Replicate: crude macrocycle reactions; for fraction fluorescent probe displaced: 10 µM macrocycle concentration, crude acylated macrocycle (scaffold Mpa-AA1-AA2-AA3 x carboxylic acid), p53-based fluorescent peptide, human MDM2
Method in brief: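 Macrocycle reaction products at a final 10 µM were tested for displacement of a p53-based fluorescent peptide from human MDM2. Fluorescence anisotropy (ex 485/em 535 nm) was read once per macrocycle at 25 °C.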

## O=C1CCNC(=O)C2(CCN(C(=O)/C=C/c3ccccc3)CC2)NC(=O)[C@H](Cc2ccccc2)NC(=O)CCSSCCN1 [X F D6 B2 Acid 91]
Acid 91
  fraction fluorescent probe displaced, Screen: 0.03
  fraction fluorescent probe displaced, Replicate: -0.00827

## O=C1CCNC(=O)C2(CCN(C(=O)/C=C/c3ccccc3)CC2)NC(=O)CCSSCCNC(=O)[C@H](Cc2ccccc2)N1 [X D6 B2 F Acid 91]
Acid 91
  fraction fluorescent probe displaced, Screen: -0.0241
  fraction fluorescent probe displaced, Replicate: -0.00827

## O=C(COc1ccccc1)NC[C@@H]1NC(=O)[C@@H]2CCCN2C(=O)CCSSCCNC(=O)[C@H](Cc2ccccc2)NC1=O [X-B1-D3-F + A13] ([Mpa]P[Dap](Phenoxyacetyl)F-Cysteamide; disulfide 1-C)
  fraction fluorescent probe displaced: 0.1199

## O=C1CCSSCCNC(=O)C2CCCN2C(=O)C2CC(NC(=O)c3ccc(Cl)cc3)CN2C(=O)C(Cc2c[nH]c3ccccc23)N1 (stereo not shown) [X W D5 B1 Acid 25] ([Mpa]W[ξPro(4ξ-NHCOC6H4-4-Cl)]P-Cysteamide; disulfide 1-C; configuration not given here)
Acid 25
  fraction fluorescent probe displaced, Screen: 0.22
  fraction fluorescent probe displaced, Replicate: 0.28

## O=C1CCSSCCNC(=O)[C@H](Cc2ccccc2)NC(=O)[C@H](CNC(=O)c2ccc(Cl)cc2)NC(=O)c2cccc(c2)CN1 [X B5 D3 F Acid 25]
Acid 25
  fraction fluorescent probe displaced, Screen: 0.0244
  fraction fluorescent probe displaced, Replicate: 0.10

## O=C1CCSSCCNC(=O)[C@@H]2CCCN2C(=O)[C@H](CNC(=O)c2ccc(Cl)s2)NC(=O)[C@H](Cc2ccccc2)N1 [X F D3 B1 Acid 14] ([Mpa]F[Dap](2Thenoyl(5-Cl))P-Cysteamide; disulfide 1-C)
Acid 14
  fraction fluorescent probe displaced, Screen: 0.08
  fraction fluorescent probe displaced, Replicate: 0.10

## O=C1CCNC(=O)[C@H](Cc2c[nH]c3ccccc23)NC(=O)C2(CCN(C(=O)/C=C/c3ccccc3)CC2)NC(=O)CCSSCCN1 [X D6 W B2 Acid 91]
Acid 91
  fraction fluorescent probe displaced, Screen: 0.14
  fraction fluorescent probe displaced, Replicate: 0.07

## O=C1CCSSCCNC(=O)[C@H](CNC(=O)c2ccc(Cl)cc2)NC(=O)c2cccc(c2)CNC(=O)[C@H](Cc2c[nH]c3ccccc23)N1 [X W B5 D3 Acid 25]
Acid 25
  fraction fluorescent probe displaced, Screen: 0.41
  fraction fluorescent probe displaced, Replicate: 0.22

## O=C(NC[C@@H]1NC(=O)[C@H](Cc2ccccc2)NC(=O)[C@@H]2CCCN2C(=O)CCSSCCNC1=O)c1ccc(Cl)cc1 [X B1 F D3 Acid 25] ([Mpa]PF[Dap](Benzoyl(4-Cl))-Cysteamide; disulfide 1-C)
Acid 25
  fraction fluorescent probe displaced, Screen: 0.09
  fraction fluorescent probe displaced, Replicate: 0.20

## O=C(Cc1c[nH]c2ccccc12)NC[C@@H]1NC(=O)[C@@H]2CCCN2C(=O)CCSSCCNC(=O)[C@H](Cc2ccccc2)NC1=O [X-B1-D3-F + A12] ([Mpa]P[Dap](X3)F-Cysteamide; disulfide 1-C)
  fraction fluorescent probe displaced: 0.03497

## O=C1NC(Cc2ccccc2)C(=O)N2CCN(C(=O)c3ccc(Cl)cc3)CC2C(=O)NCCSSCCC(=O)N2CCCC1C2 (stereo not shown) [X B4 F D7 Acid 25]
Acid 25
  fraction fluorescent probe displaced, Screen: 0.09
  fraction fluorescent probe displaced, Replicate: 0.10

## COC(=O)CCC(=O)NC[C@@H]1NC(=O)[C@@H]2CCCN2C(=O)CCSSCCNC(=O)[C@H](Cc2c[nH]c3ccccc23)NC1=O [X-B1-D3-W + A93] ([Mpa]P[Dap](MeOSuc)W-Cysteamide; disulfide 1-C)
  fraction fluorescent probe displaced: 0.1339

## O=C(NC[C@@H]1NC(=O)[C@@H]2CCCN2C(=O)CCSSCCNC(=O)[C@H](Cc2ccccc2)NC1=O)c1ccc(=O)[nH]n1 [X-B1-D3-F + A86] ([Mpa]P[Dap](X8)F-Cysteamide; disulfide 1-C)
  fraction fluorescent probe displaced: 0.01272

## O=C(C=Cc1ccccc1)NC1CC2C(=O)NC(Cc3ccccc3)C(=O)NCCC(=O)NCCSSCCC(=O)N2C1 (stereo not shown) [X D5 F B2 Acid 91]
Acid 91
  fraction fluorescent probe displaced, Screen: 0.0563
  fraction fluorescent probe displaced, Replicate: -0.0333

## O=C(NC[C@@H]1NC(=O)[C@@H]2CCCN2C(=O)CCSSCCNC(=O)[C@H](Cc2ccccc2)NC1=O)C1CCOCC1 [X-B1-D3-F + A44] ([Mpa]P[Dap](Tetrahydropyran4carbonyl)F-Cysteamide; disulfide 1-C)
  fraction fluorescent probe displaced: 0.01122

## O=C1CCSSCCNC(=O)[C@H](CNC(=O)c2ccc(Cl)cc2)NC(=O)[C@@H]2CCCN2C(=O)[C@H](Cc2c[nH]c3ccccc23)N1 [X W B1 D3 Acid 25] ([Mpa]WP[Dap](Benzoyl(4-Cl))-Cysteamide; disulfide 1-C)
Acid 25
  fraction fluorescent probe displaced, Screen: 0.28
  fraction fluorescent probe displaced, Replicate: 0.17

## O=C1CCSSCCNC(=O)[C@H]2CCCN(C2)C(=O)C2(CCN(C(=O)/C=C/c3ccccc3)CC2)NC(=O)[C@H](Cc2c[nH]c3ccccc23)N1 [X W D6 B4 Acid 91]
Acid 91
  fraction fluorescent probe displaced, Screen: 0.11
  fraction fluorescent probe displaced, Replicate: 0.09

## O=C(/C=C/c1ccccc1)NC[C@@H]1NC(=O)[C@H]2CCCN(C2)C(=O)[C@H](Cc2ccccc2)NC(=O)CCSSCCNC1=O [X F B4 D3 Acid 91]
Acid 91
  fraction fluorescent probe displaced, Screen: 0.19
  fraction fluorescent probe displaced, Replicate: 0.17

## O=C1CCNC(=O)[C@H](Cc2c[nH]c3ccccc23)NC(=O)C2(CCN(C(=O)c3ccc(Cl)cc3)CC2)NC(=O)CCSSCCN1 [X D6 W B2 Acid 25]
Acid 25
  fraction fluorescent probe displaced, Screen: 0.09
  fraction fluorescent probe displaced, Replicate: 0.10

## O=C1CCSSCCNC(=O)C2CC(NC(=O)c3ccc(Cl)s3)CN2C(=O)C2CCCN2C(=O)C(Cc2c[nH]c3ccccc23)N1 (stereo not shown) [X W B1 D5 Acid 14] ([Mpa]WP[ξPro(4-NHCO(5-Cl-2-thienyl))]-Cysteamide; disulfide 1-C; configuration not given here)
Acid 14
  fraction fluorescent probe displaced, Screen: 0.0241
  fraction fluorescent probe displaced, Replicate: 0.17

## O=C1CCSSCCNC(=O)[C@H](Cc2ccccc2)NC(=O)[C@H]2CCCN(C2)C(=O)[C@H](CNC(=O)c2ccc(Cl)s2)N1 [X D3 B4 F Acid 14]
Acid 14
  fraction fluorescent probe displaced, Screen: 0.0241
  fraction fluorescent probe displaced, Replicate: 0.10

## O=C(/C=C/c1ccccc1)NC[C@@H]1NC(=O)CCNC(=O)[C@H](Cc2c[nH]c3ccccc23)NC(=O)CCSSCCNC1=O [X W B2 D3 Acid 91]
Acid 91
  fraction fluorescent probe displaced, Screen: 0.08
  fraction fluorescent probe displaced, Replicate: 0.09

## O=C1CCNC(=O)C(Cc2c[nH]c3ccccc23)NC(=O)C2CN(C(=O)c3ccc(Cl)cc3)CCN2C(=O)CCSSCCN1 (stereo not shown) [X D7 W B2 Acid 25]
Acid 25
  fraction fluorescent probe displaced, Screen: 0.22
  fraction fluorescent probe displaced, Replicate: 0.17

## O=C1CCSSCCNC(=O)C2CN(C(=O)c3ccc(Cl)cc3)CCN2C(=O)C2CCCN2C(=O)C(Cc2c[nH]c3ccccc23)N1 (stereo not shown) [X W B1 D7 Acid 25]
Acid 25
  fraction fluorescent probe displaced, Screen: 0.19
  fraction fluorescent probe displaced, Replicate: 0.17

Reference: paper PMC9250534, “Synthesis and direct assay of large macrocycle diversities by combinatorial late-stage modification at picomole scale” (Nature Communications, 2022)
